Data taken from patent US20090170886A1 (Pfizer Inc, priority 2005, published 2009).
Read-outs that look alike come from different tables or passages of the source.

System: sebum production in ear sebaceous glands of male Syrian hamsters
Assay: Animal Model for Inhibition of Sebum Production (hamster ear, HPLC of sebum lipids)
Format: in vivo, Syrian hamster
Conditions: Mesocricetus auratus, 672 h, 4 weeks; for inhibition in vivo at 1 %: 1% topical twice daily; for inhibition in vivo at 1.5 %: 1.5% topical twice daily; for inhibition in vivo at 3 %: 3% topical twice daily
Procedure: Luderschmidt et al. describes an animal model for testing whether compounds are capable of modulating sebum secretion, Arch. Derm. Res., 258, 185-191 (1977). This model uses male Syrian hamsters, whose ears contain sebaceous glands. Based on binding data and cellular assay data, selected compounds were chosen for screening in this model. Those compounds included the products of Examples 1, 20, 81, 82, and 109.
Testing for sebum inhibition was carried out in the following manner. Male Syrian hamsters aged 9 to 10 weeks were introduced into the laboratory environment and acclimated for 2 weeks prior to use in the study. Each group consisted of 5 animals and run in parallel with vehicle and positive controls. Prior to administration, a sufficient quantity of each compound was dissolved in 1 mL of a solvent consisting of ethanol, transcutol, and propylene glycol ([…]) to achieve the final concentration specified in Table IV below.
Animals were dosed topically twice daily, five days a week, for 4 weeks. Each dose consisted of 25 micro liters of vehicle control or drug. The dose was applied to the ventral surfaces of both the right and left ears. All animals were sacrificed approximately 18-24 hours after the final dose. The right ears were collected from each animal and used for sebum analysis.
The ears were prepped for HPLC analysis in the following manner. One 8 mm distal biopsy punch was taken, just above the anatomical “V” mark in the ear to normalize the sample area. The punch was pulled apart. The ventral biopsy surface (the area where the topical dose was directly applied to the sebaceous glands) was retained for testing and the dorsal surface of the biopsy punch was discarded.
Tissue samples were blown with N2 gas and stored at −80° C. under nitrogen until HPLC analysis. In addition to ear samples, an aliquot of each drug and vehicle (at least 250 ul) was also stored at −80° C. for inclusion in the HPLC analysis.
HPLC analysis was carried out on an extract of the tissue sample. Tissue samples were contacted with 3 ml of solvent (a 4:1 admixture of 2,2,4-trimethylpentane and isopropyl alcohol). The mixture was shaken for 15 minutes and stored overnight at room temperature, protected from light. The next morning 1 milliliter of water was added to the sample and shaken for 15 minutes. The sample was then centrifuged at approximately 1500 rpm for 15 minutes. Two ml of the organic phase (top layer) was transferred to a glass vial, dried at 37° C., under nitrogen, for approximately 1 hour, and then lyophilized for approximately 48 hours. The samples were then removed from the lyophilizer and each vial was reconstituted with 600 μl of solvent A (trimethylpentane/tetrahydrofuran (99:1)). The samples were then recapped and vortexed for 5 minutes.
Two hundred (200) μl of each sample was then transferred to a pre-labeled 200 μl HPLC vial with 200 μL glass inserts. The HPLC vials were placed in the autosampler tray for the Agilent 1100 series HPLC unit. The Agilent 1100 HPLC system consisted of a thermostated autosampler, a quarternary pump, a column heater, and an A/D interface module. All components were controlled by Agilent ChemStation software. A Waters Spherisorb S3W 4.6×100 mm analytical column was maintained at 30° C. by the Agilent column heater unit.
The HPLC autosampler was programmed to maintain the sample temperature at 20° C. throughout the run.
Ten (10) uL of each sample was injected in triplicate into the column. Two solvents were used for the solvent gradient. Solvent A was an admixture of trimethylpentane and tetrahydrofuran (99:1). Solvent B was ethylacetate. The gradient utilized is described in the table below: […]
The Sedex 75 Evaporative Light Scattering Detector (ELSD) was operated at 45° C. with a gain of 5, and N2 pressure maintained at 3.1 bar. Analog signal obtained by the instrument was sent to the Agilent A/D interface module where it was converted to a digital output. […]

[1] = cholesterol ester vs vehicle control, read-out: % CE reduction
[2] = wax ester vs vehicle control, read-out: % WE reduction

Row | SMILES | inhibition in vivo at 1 % [1] [%] | inhibition in vivo at 1 % [2] [%] | further results
1 | CC(C)CC(Oc1ccc(C#N)c(C(F)(F)F)c1)c1cccc(O)c1 (single isomer, unassigned; (+)) [Example 21, (+)4-[1-(3-Hydroxyphenyl)-3-methylbutoxy]-2-(trifluoromethyl)benzonitrile] | 7 | 19 | –
2 | C=CCC(Oc1ccc(C#N)c(C(F)(F)F)c1)c1cccc(O)c1 (single isomer, unassigned; (-)) [Example 19, (−)4-{[1-(3-Hydroxyphenyl)but-3-enyl]oxy}-2-(trifluoromethyl)benzonitrile] | 6 | 13 | –
3 | CCC(Oc1ccc(C#N)c(C(F)(F)F)c1)c1ccccn1 (stereo not drawn) [Example 79, 4-(1-Pyridin^−2-yl-propoxy)-2-trifluoromethyl-benzonitrile] | 20 | 27 | –
4 | Cc1ccc(C(CC(C)C)Oc2ccc(C#N)c(C(F)(F)F)c2)cn1 (stereo not drawn) [Example 89, 4-[3-Methyl-1-(6-methyl-pyridin-3-yl)-butoxy]-2-trifluoromethyl-benzonitrile] | 21 | 35 | –
5 | CC(C)CC(Oc1ccc(C#N)c(C(F)(F)F)c1)c1cccnc1 (stereo not drawn) [Example 88, 4-(3-Methyl-1-pyridin-3-yl-butoxy)-2-trifluoromethyl-benzonitrile] | 17 | 25 | –
6 | CC(Oc1ccc(C#N)c(C(F)(F)F)c1)c1cncc(O)c1 (single isomer, unassigned; (+)) [Example 74, (+)4-[1-(5-Hydroxypyridin-3-yl)ethoxy]-2-(trifluoromethyl)benzonitrile] | 21 | 24 | –
7 | COc1cccc(C(C)Oc2ccc(C#N)c(C(F)(F)F)c2)n1 (stereo not drawn) [Example 80, 4-[1-(6-Methoxy-pyridin-2-yl)-ethoxy]-2-trifluoromethyl-benzonitrile] | 39 | 50 | –
8 | N#Cc1ccc(OCc2cccc(O)c2)cc1C(F)(F)F [Example 6, 4-[(3-Hydroxybenzyl)oxy]-2-(trifluoromethyl)benzonitrile] | – | – | inhibition in vivo at 1.5 % [1]: 25%; inhibition in vivo at 1.5 % [2]: 40%
9 | CC(Oc1ccc(C#N)c(C(F)(F)F)c1)c1cccc(O)c1 (single isomer, unassigned; (-)) [Example 9, (−)-4-[1-(3-Hydroxyphenyl)ethoxy]-2-(trifluoromethyl)benzonitrile] | – | – | inhibition in vivo at 3 % [1]: 38%; inhibition in vivo at 3 % [2]: 52%
10 | CC(Oc1ccc(C#N)c(C(F)(F)F)c1)c1ccccc1 (racemic) [Example 1, 4-(1-Phenyl-ethoxy)-2-trifluoromethyl-benzonitrile] | – | – | inhibition in vivo at 3 % [1]: 52%; inhibition in vivo at 3 % [2]: 71%
11 | CCCC(Oc1ccc(C#N)c(C(F)(F)F)c1)c1cccc(O)c1 (racemic) [Example 14, 4-[1-(3-Hydroxyphenyl)butoxy]-2-(trifluoromethyl)benzonitrile] | – | – | inhibition in vivo at 3 % [1]: 18%; inhibition in vivo at 3 % [2]: 38%
12 | CCCC(Oc1ccc(C#N)c(C(F)(F)F)c1)c1cccc(O)c1 (single isomer, unassigned; (+)) [Example 15, (+)4-[1-(3-Hydroxyphenyl)butoxy]-2-(trifluoromethyl)benzonitrile] | -10 | -13 | –
